Test results published in ChEMBL document CHEMBL5236598, “Lead Optimization and Avoidance of Metabolic-perturbing Motif Developing Novel Diarylpyrimidines as Potent HIV-1 NNRTIs” (J Med Chem, 2022).
pEC50: −log10 of the molar value.

What was measured:
[1] = system: Human immunodeficiency virus 1; test: Antiviral activity against wild type HIV-1 IIIB infected in human MT4 cells assessed as protection against virus-induced cytopathic effect incubated for 5 days by MTT assay; type: functional, organism-based; settings: Human immunodeficiency virus 1, IIIB, MT4, 120 h
[2] = Selectivity index, ratio of CC50 for cytotoxicity against human MT4 cells to EC50 for antiviral activity against wild type HIV-1 IIIB infected in human MT4 cells; type: toxicity, cell-based; settings: read-out: Ratio CC50/EC50
[3] = system: Human immunodeficiency virus 1; test: Antiviral activity against HIV-1 RES056 harboring RT K103N/Y181C double mutant infected in human MT4 cells assessed as protection against virus-induced cytopathic effect incubated for 5 days by MTT assay; type: functional, organism-based; settings: Human immunodeficiency virus 1, RES056, MT4, 120 h
[4] = Selectivity index, ratio of CC50 for cytotoxicity against human MT4 cells to EC50 for antiviral activity against HIV-1 RES056 harboring RT K103N/Y181C double mutant infected in human MT4 cells; type: toxicity, cell-based; settings: read-out: Ratio CC50/EC50
[5] = Cytotoxicity against human MT4 cells assessed as reduction in cell viability measured after 5 days by MTT assay; type: toxicity, cell-based; settings: time 5 day

Compound `Cc1cc(C#N)cc(C)c1Oc1nc(NC2CCN(c3ccc(NS(N)(=O)=O)cc3)CC2)nc2sccc12` has a pEC50 [1] of 7.89, a selectivity ratio [2] of 1930 and a pEC50 [3] of 6.20. For the same compound, the selectivity ratio [4] was 39 and the CC50 at 120 h [5] was 24900 nM.
For `Cc1cc(/C=C/C#N)cc(C)c1Oc1nc(Nc2ccc(C#N)nc2)nc2cc[nH]c12`, the pEC50 [1] was 5.79, the selectivity ratio [2] was 5 and the pEC50 [3] was less than 5.10. For the same compound, the selectivity ratio [4] was less than 1 and the CC50 at 120 h [5] was 7940 nM.
In the case of `Cc1cc(/C=C/C#N)cc(C)c1Oc1nc(NC2CCN(c3c(F)cc([N+](=O)[O-])cc3F)CC2)nc2sccc12`, the pEC50 [1] was 7.17, the selectivity ratio [2] was greater than 3260 and the pEC50 [3] was 4.56. The selectivity ratio [4] was greater than 8 and the CC50 at 120 h [5] was greater than 222000 nM.
Compound `Cc1cc(-c2ccc(C#N)cc2)cc(C)c1Oc1nc(Nc2ccc(C#N)nc2)nc2ccsc12` has a pEC50 [1] of 8.12, a selectivity ratio [2] of 28100 and a pEC50 [3] of 6.42. For the same compound, the selectivity ratio [4] was 563 and the CC50 at 120 h [5] was 214000 nM.
For `Cc1cc(C#N)cc(C)c1Oc1nc(NC2CCN(c3ccc(N)cc3F)CC2)nc2ccsc12`, the pEC50 [1] was 7.39, the selectivity ratio [2] was 300 and the pEC50 [3] was less than 4.91. The selectivity ratio [4] was less than 1 and the CC50 at 120 h [5] was 12100 nM.
With `N#C/C=C/c1cc(F)c(Oc2nc(Nc3ccc(C#N)nc3)nc3sccc23)c(F)c1` the pEC50 [1] was 8.16, the selectivity ratio [2] was 1840 and the pEC50 [3] was 5.12. The selectivity ratio [4] was 1.7 and the CC50 at 120 h [5] was 12800 nM.
`Cc1cc(C#N)cc(C)c1Oc1nc(NC2CCN(c3c(F)cc(NS(N)(=O)=O)cc3F)CC2)nc2sccc12` gave a pEC50 [1] of 7.91, a selectivity ratio [2] of 322 and a pEC50 [3] of less than 5.40. For the same compound, the selectivity ratio [4] was less than 1 and the CC50 at 120 h [5] was 3960 nM.
Work on `Cc1cc(-c2ccc(F)cc2)cc(C)c1Oc1nc(Nc2ccc(C#N)nc2)nc2sccc12` yielded a pEC50 [1] of 6.10, a selectivity ratio [2] of 3 and a pEC50 [3] of less than 5.65. The selectivity ratio [4] was less than 1 and the CC50 at 120 h [5] was 2230 nM.
`Cc1cc(/C=C/C#N)cc(C)c1Oc1nc(NC2CCN(c3c(F)cc([N+](=O)[O-])cc3F)CC2)nc2ccsc12` gave a pEC50 [1] of 6.90, a selectivity ratio [2] of 794 and a pEC50 [3] of 5.12. The selectivity ratio [4] was 13 and the CC50 at 120 h [5] was 99500 nM.
Work on `Cc1cc(/C=C/C#N)cc(C)c1Oc1nc(NC2CCN(c3ccc(N)cc3F)CC2)nc2ccsc12` yielded a pEC50 [1] of 7.50, a selectivity ratio [2] of 735 and a pEC50 [3] of 6.06. The selectivity ratio [4] was 26 and the CC50 at 120 h [5] was 23000 nM.
In the case of `Cc1cc(/C=C/C#N)cc(C)c1Oc1nc(NC2CCN(c3ccc([N+](=O)[O-])cc3F)CC2)nc2sccc12`, the pEC50 [1] was 7.53, the selectivity ratio [2] was greater than 7740 and the pEC50 [3] was 5.87. For the same compound, the selectivity ratio [4] was greater than 169 and the CC50 at 120 h [5] was greater than 229000 nM.
In the case of `Cc1cc(-c2ccc(F)cc2)cc(C)c1Oc1nc(Nc2ccc(C#N)c(F)c2)nc2ccsc12`, the pEC50 [1] was 6.16, the selectivity ratio [2] was 140 and the pEC50 [3] was 5.07. For the same compound, the selectivity ratio [4] was 11 and the CC50 at 120 h [5] was 97300 nM.
`Cc1cc(/C=C/C#N)cc(C)c1Oc1nc(NC2CCN(c3ccc(N)cc3F)CC2)nc2sccc12` gave a pEC50 [1] of 7.49, a selectivity ratio [2] of 418 and a pEC50 [3] of 5.98. It also gave a selectivity ratio [4] of 13 and a CC50 at 120 h [5] of 13600 nM.
In the case of `Cc1cc(C#N)cc(C)c1Oc1nc(NC2CCN(c3c(F)cc([N+](=O)[O-])cc3F)CC2)nc2ccsc12`, the pEC50 [1] was 7.24, the selectivity ratio [2] was 12900 and the pEC50 [3] was less than 4.52. It also gave a selectivity ratio [4] of less than 1 and a CC50 at 120 h [5] of 740000 nM.
Work on `Cc1cc(C#N)cc(C)c1Oc1nc(NC2CCN(c3ccc(N)cc3)CC2)nc2sccc12` yielded a pEC50 [1] of 7.44, a selectivity ratio [2] of 864 and a pEC50 [3] of 5.76. For the same compound, the selectivity ratio [4] was 18 and the CC50 at 120 h [5] was 31000 nM.
`Cc1cc(C#N)cc(C)c1Oc1nc(NC2CCN(c3ccc([N+](=O)[O-])cc3)CC2)nc2sccc12` gave a pEC50 [1] of 7.69, a selectivity ratio [2] greater than 12100 and a pEC50 [3] of 4.27. The selectivity ratio [4] was greater than 5 and the CC50 at 120 h [5] was greater than 249000 nM.
For `N#C/C=C/c1cc(F)c(Oc2nc(Nc3ccc(C#N)nc3)nc3c2COC3)c(F)c1`, the pEC50 [1] was 8.24, the selectivity ratio [2] was 42100 and the pEC50 [3] was 4.91. For the same compound, the selectivity ratio [4] was 20 and the CC50 at 120 h [5] was 243000 nM.
